Measured values taken from US20250197409A1, “BIFUNCTIONAL COMPOUND AND PHARMACEUTICAL COMPOSITION COMPRISING THE BIFUNCTIONAL COMPOUND, AND METHOD FOR TREATING ANDROGEN RECEPTOR RELATED DISEASE BY USING THE SAME” (ANHORN MEDICINES CO., LTD., priority 2022, published 2025).
Where two headings read alike, the source gives them in different places.

Target: T1, androgen receptor (Homo sapiens, UniProt P10275, T878A)
T1 construct: host or cells: LNCaP.FGC
Assay: Androgen receptor degradation assay using Western blot analysis
Assay type: cell-based
Summary of the method: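 LNCaP.FGC cells (2×10^5/well) treated with 10-fold serial dilutions in RPMI from 100 nM stock; untreated cells as negative control. AR Western signal normalized to GAPDH, expressed as % remaining versus untreated (100%). DC50 derived from calibration curve of serial dilutions.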

[1] = 24 h, read-out: Androgen Receptor Remaining (%), LNCaP.FGC cells, 100 nM, 24 hr, normalized to GAPDH, untreated cells = 100%
[2] = read-out: AR DC50 (concentration needed for 50% AR degradation); LNCaP.FGC cells, serial 10x dilutions from 100 nM
[3] = 24 h, LNCaP.FGC cells, 100 nM, 24 hr, normalized to GAPDH, untreated cells = 100%; read-out: Androgen Receptor Remaining (%)
[4] = LNCaP.FGC cells, serial 10x dilutions from 100 nM; read-out: AR DC50 (concentration needed for 50% AR degradation)

T1 sequence (P10275 whole entry T878A): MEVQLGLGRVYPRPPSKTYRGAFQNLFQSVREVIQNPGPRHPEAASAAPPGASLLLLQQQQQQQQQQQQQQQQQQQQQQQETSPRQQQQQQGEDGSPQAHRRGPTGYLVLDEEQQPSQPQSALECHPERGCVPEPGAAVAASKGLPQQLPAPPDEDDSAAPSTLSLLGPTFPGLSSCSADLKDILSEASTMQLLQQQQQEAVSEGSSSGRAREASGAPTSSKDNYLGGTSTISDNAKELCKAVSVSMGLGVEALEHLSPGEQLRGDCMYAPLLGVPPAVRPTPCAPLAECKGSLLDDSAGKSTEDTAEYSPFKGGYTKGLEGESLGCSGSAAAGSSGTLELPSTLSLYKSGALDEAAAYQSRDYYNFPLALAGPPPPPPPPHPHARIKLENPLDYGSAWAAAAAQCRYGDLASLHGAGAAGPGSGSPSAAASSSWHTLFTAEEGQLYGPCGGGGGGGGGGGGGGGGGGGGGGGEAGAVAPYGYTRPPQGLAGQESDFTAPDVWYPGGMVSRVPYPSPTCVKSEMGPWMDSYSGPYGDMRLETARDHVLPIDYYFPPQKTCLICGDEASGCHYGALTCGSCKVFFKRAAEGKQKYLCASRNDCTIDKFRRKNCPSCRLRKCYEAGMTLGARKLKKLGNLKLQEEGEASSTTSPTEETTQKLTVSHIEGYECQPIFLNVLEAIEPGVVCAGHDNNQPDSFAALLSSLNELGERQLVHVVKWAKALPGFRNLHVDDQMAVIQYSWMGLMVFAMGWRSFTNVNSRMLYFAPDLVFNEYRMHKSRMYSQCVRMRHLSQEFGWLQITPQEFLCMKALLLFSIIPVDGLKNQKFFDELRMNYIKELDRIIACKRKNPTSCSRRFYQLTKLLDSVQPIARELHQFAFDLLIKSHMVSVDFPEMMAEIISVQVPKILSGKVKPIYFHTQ
T1 sequence (Q96SW2 whole entry partner): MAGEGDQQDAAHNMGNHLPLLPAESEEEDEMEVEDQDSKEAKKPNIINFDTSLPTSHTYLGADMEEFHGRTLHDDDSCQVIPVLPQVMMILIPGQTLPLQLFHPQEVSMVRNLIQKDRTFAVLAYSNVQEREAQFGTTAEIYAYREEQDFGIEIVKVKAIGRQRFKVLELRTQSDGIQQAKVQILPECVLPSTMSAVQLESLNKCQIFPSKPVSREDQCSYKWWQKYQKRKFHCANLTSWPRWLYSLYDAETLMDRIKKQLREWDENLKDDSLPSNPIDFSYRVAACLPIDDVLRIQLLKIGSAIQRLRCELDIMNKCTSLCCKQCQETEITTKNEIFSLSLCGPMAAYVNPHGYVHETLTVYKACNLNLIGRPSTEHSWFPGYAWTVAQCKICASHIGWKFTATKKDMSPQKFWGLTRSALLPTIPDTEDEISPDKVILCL

Structure (SMILES)	remaining activity at 0.1 µM [1] [%]	DC50 [2] [nM]	further results
CCn1c2c(c3ccc(OCCOCCN4CCN(c5ccc(C(=O)N[C@H]6CC[C@H](Oc7ccc(C#N)c(Cl)c7)CC6)nn5)CC4)cc31)C(=O)N(C1CCC(=O)NC1=O)C2=O (stereo partly drawn) [Compound 113]	26	10 to 25	
CN(c1ccc(C#N)c(Cl)c1)[C@H]1CC[C@H](NC(=O)c2ccc(N3CCN(CCOc4ccc5c6c(n(CC(F)F)c5c4)C(=O)N(C4CCC(=O)NC4=O)C6=O)CC3)nn2)CC1 (stereo partly drawn) [Compound 104]	42	25 to 100	
CC1(C)[C@H](NC(=O)c2ccc(N3CCN(CCCOc4ccc5c6c(sc5c4)C(=O)N(C4CCC(=O)NC4=O)C6=O)CC3)cn2)C(C)(C)[C@H]1Oc1ccc(C#N)c(Cl)c1 (stereo partly drawn) [Compound 14]			remaining activity at 0.1 µM [3]: 70%
CCn1c2c(c3ccc(OCCCN4CCC5(CCN(c6ccc(C(=O)N[C@H]7CC[C@H](Oc8ccc(C#N)c(Cl)c8)CC7)nn6)C5)C4)cc31)C(=O)N(C1CCC(=O)NC1=O)C2=O (stereo partly drawn) [Compound 132]	7	10 to 25	
Cn1c2c(c3ccc(OC4CCN(CC5CCN(c6ccc(C(=O)N[C@H]7C(C)(C)[C@H](Oc8ccc(C#N)c(Cl)c8)C7(C)C)nn6)CC5)CC4)cc31)C(=O)N(C1CCC(=O)NC1=O)C2=O (stereo partly drawn) [Compound 221]			DC50 [4]: 10 to 25 nM
CCn1c2c(c3ccc(OCCN4CCC5(CC4)CCN(c4ccc(C(=O)N[C@H]6CC[C@H](Oc7ccc(C#N)c(Cl)c7)CC6)nn4)CC5)cc31)C(=O)N(C1CCC(=O)NC1=O)C2=O (stereo partly drawn) [Compound 182]		< 10	
CCn1c2c(c3ccc(OCCOC4CC5(CCN(c6ccc(C(=O)N[C@H]7CC[C@H](N(C)c8ccc(C#N)c(Cl)c8)CC7)nn6)C5)C4)cc31)C(=O)N(C1CCC(=O)NC1=O)C2=O (stereo partly drawn) [Compound 164]	31	10 to 25	
Cn1c2c(c3cc(OCCN4CCN(c5ccc(C(=O)N[C@H]6C(C)(C)[C@H](Oc7ccc(C#N)c(Cl)c7)C6(C)C)cc5)CC4)ccc31)C(=O)N(C1CCC(=O)NC1=O)C2=O (stereo partly drawn) [Compound 15]			remaining activity at 0.1 µM [3]: 106%
CCn1c2c(c3ccc(OCCOC4CC5(CCN(c6ccc(C(=O)N[C@H]7CC[C@H](Oc8ccc(C#N)c(Cl)c8)CC7)nn6)C5)C4)cc31)C(=O)N(C1CCC(=O)NC1=O)C2=O (stereo partly drawn) [Compound 162]	29	25 to 100	
CCn1c2c(c3ccc(OCCCOC4CC5(CCN(c6ccc(C(=O)N[C@H]7CC[C@H](N(C)c8ccc(C#N)c(Cl)c8)CC7)nn6)C5)C4)cc31)C(=O)N(C1CCC(=O)NC1=O)C2=O (stereo partly drawn) [Compound 177]		25 to 100	
CN(c1ccc(C#N)c(Cl)c1)[C@H]1CC[C@H](NC(=O)c2ccc(N3CC4(CCN(CCOc5ccc6c7c(n(CC(F)F)c6c5)C(=O)N(C5CCC(=O)NC5=O)C7=O)CC4)C3)nn2)CC1 (stereo partly drawn) [Compound 108]	19		
C[Si](C)(C)CCOCn1c2c(c3ccc(OCCCN4CCN(c5ccc(C(=O)N[C@H]6CC[C@H](Oc7ccc(C#N)c(Cl)c7)CC6)nn5)CC4)cc31)C(=O)N(C1CCC(=O)NC1=O)C2=O (stereo partly drawn) [Compound 84]	62		
CCn1c2c(c3ccc(OCCCN4C[C@H](C)N(c5ccc(C(=O)N[C@H]6CC[C@H](Oc7ccc(C#N)c(Cl)c7)CC6)nn5)C[C@H]4C)cc31)C(=O)N(C1CCC(=O)NC1=O)C2=O (stereo partly drawn) [Compound 59]	66		
CCn1c2c(c3ccc(OCC(=O)N4CCC5(CC4)CN(c4ccc(C(=O)N[C@H]6CC[C@H](N(C)c7ccc(C#N)c(Cl)c7)CC6)nn4)C5)cc31)C(=O)N(C1CCC(=O)N(CO)C1=O)C2=O (stereo partly drawn) [Compound 128]	63		
CCn1c2c(c3ccc(OCCC4CCN(c5ccc(C(=O)N[C@H]6CC[C@H](Oc7ccc(C#N)c(Cl)c7)CC6)nn5)CC4)cc31)C(=O)N(C1CCC(=O)NC1=O)C2=O (stereo partly drawn) [Compound 2]	56		
CCn1c2c(c3ccc(OCCN4CC5CCC(C4)N5c4ccc(C(=O)N[C@H]5CC[C@H](Oc6ccc(C#N)c(Cl)c6)CC5)nn4)cc31)C(=O)N(C1CCC(=O)NC1=O)C2=O (stereo partly drawn) [Compound 70]	62		
Cn1c2c(c3ccc(OCCN4CCC5(CC4)CCN(c4ccc(C(=O)N[C@H]6CC[C@H](N(C)c7ccc(C#N)c(Cl)c7)CC6)nn4)CC5)cc31)C(=O)N(C1CCC(=O)NC1=O)C2=O (stereo partly drawn) [Compound 199]		10 to 25	
CCn1c2c(c3ccc(OCCCN4CCC(C5CCN(c6ccc(C(=O)N[C@H]7CC[C@H](N(C)c8ccc(C#N)c(Cl)c8)CC7)nn6)CC5)CC4)cc31)C(=O)N(C1CCC(=O)NC1=O)C2=O (stereo partly drawn) [Compound 167]	78		
CCn1c2c(c3ccc(OCCOCCN4CCN(c5ccc(C(=O)N[C@H]6CC[C@H](N(C)c7ccc(C#N)c(Cl)c7)CC6)nn5)CC4)cc31)C(=O)N(C1CCC(=O)NC1=O)C2=O (stereo partly drawn) [Compound 114]	21	10 to 25	
C=Nc1ccc(O[C@H]2CC[C@H](NC(=O)c3ccc(N4CC5(CCN(CCCOc6ccc7c8c(n(CC(F)F)c7c6)C(=O)N(C6CCC(=O)NC6=O)C8=O)CC5)C4)nn3)CC2)cc1Cl (stereo partly drawn) [Compound 93]	11	25 to 100	

Structure (SMILES)	remaining activity at 0.1 µM [1] [%]	DC50 [2] [nM]	further results
N#Cc1ccc(O[C@H]2CC[C@H](NC(=O)c3ccc(N4CCN(CCCOc5ccc6c7c([nH]c6c5)C(=O)N(C5CCC(=O)NC5=O)C7=O)CC4)nn3)CC2)cc1Cl (stereo partly drawn) [Compound 86]			remaining activity at 0.1 µM [3]: 20%; DC50 [4]: 25 to 100 nM
CCn1c2c(c3ccc(OCC(=O)N4CCC5(CC4)CN(c4ccc(C(=O)N[C@H]6CC[C@H](Oc7ccc(C#N)c(Cl)c7)CC6)nn4)C5)cc31)C(=O)N(C1CCC(=O)N(CO)C1=O)C2=O (stereo partly drawn) [Compound 122]	33	> 100	
Cn1c2c(c3ccc(OCC4CCN(c5ccc(C(=O)N[C@H]6CC[C@H](Oc7ccc(C#N)c(Cl)c7)CC6)cn5)CC4)cc31)C(=O)N(C1CCC(=O)N(CO)C1=O)C2=O (stereo partly drawn) [Compound 34]			remaining activity at 0.1 µM [3]: 75%
Cn1c2c(c3ccc(OC4CCN(CC5CCN(c6ncc(C(=O)N[C@H]7CC[C@H](Oc8ccc(C#N)c(Cl)c8)CC7)cn6)CC5)CC4)cc31)C(=O)N(C1CCC(=O)NC1=O)C2=O (stereo partly drawn) [Compound 28]			DC50 [4]: 25 to 100 nM
CCn1c2c(c3ccc(OCCCN4CCC(c5ncc(C(=O)N[C@H]6CC[C@H](Oc7ccc(C#N)c(Cl)c7)CC6)cn5)CC4)cc31)C(=O)N(C1CCC(=O)NC1=O)C2=O (stereo partly drawn) [Compound 38]		25 to 100	
CCn1c2c(c3ccc(OCCCN4CCC5(CC4)CCN(c4ccc(C(=O)N[C@H]6CC[C@H](N(C)c7ccc(C#N)c(Cl)c7)CC6)nn4)CC5)cc31)C(=O)N(C1CCC(=O)NC1=O)C2=O (stereo partly drawn) [Compound 181]		< 10	
CCn1c2c(c3ccc(OCCCCOC4CCN(c5ccc(C(=O)N[C@H]6CC[C@H](Oc7ccc(C#N)c(Cl)c7)CC6)nn5)CC4)cc31)C(=O)N(C1CCC(=O)NC1=O)C2=O (stereo partly drawn) [Compound 185]		25 to 100	
CCn1c2c(c3ccc(OCCCN4CC5(CCN(c6ccc(C(=O)N[C@H]7CC[C@H](Oc8ccc(C#N)c(Cl)c8)CC7)nn6)CC5)C4)cc31)C(=O)N(C1CCC(=O)N(CO)C1=O)C2=O (stereo partly drawn) [Compound 95]	1	10 to 25	
CCn1c2c(c3ccc(OCCCN4CCC5(CC4)CN(c4ccc(C(=O)N[C@H]6CC[C@H](N(C)c7ccc(C#N)c(Cl)c7)CC6)nn4)C5)cc31)C(=O)N(C1CCC(=O)NC1=O)C2=O (stereo partly drawn) [Compound 107]	15		
CCn1c2c(c3ccc(OCCCOC4CC5(CCN(c6ccc(C(=O)N[C@H]7CC[C@H](Oc8ccc(C#N)c(Cl)c8)CC7)nn6)C5)C4)cc31)C(=O)N(C1CCC(=O)NC1=O)C2=O (stereo partly drawn) [Compound 176]		25 to 100	
CCn1c2c(c3ccc(OCCN4CCC5(CC4)CN(c4ccc(C(=O)N[C@H]6CC[C@H](N(C)c7ccc(C#N)c(Cl)c7)CC6)nn4)C5)cc31)C(=O)N(C1CCC(=O)NC1=O)C2=O (stereo partly drawn) [Compound 106]	119		
CCn1c2c(c3ccc(OCCCC4CCN(c5ccc(C(=O)N[C@H]6CC[C@H](N(C)c7ccc(C#N)c(Cl)c7)CC6)nn5)CC4)cc31)C(=O)N(C1CCC(=O)NC1=O)C2=O (stereo partly drawn) [Compound 165]	77		
CC(C)n1c2c(c3cc(OCCN4CCN(c5ccc(C(=O)N[C@H]6C(C)(C)[C@H](Oc7ccc(C#N)c(Cl)c7)C6(C)C)nc5)CC4)ccc31)C(=O)N(C1CCC(=O)NC1=O)C2=O (stereo partly drawn) [Compound 13]	155		
CCn1c2c(c3ccc(OCCCCN4CCN(c5ccc(C(=O)N[C@H]6CC[C@H](Oc7ccc(C#N)c(Cl)c7)CC6)nn5)CC4=O)cc31)C(=O)N(C1CCC(=O)NC1=O)C2=O (stereo partly drawn) [Compound 149]	11		
CCn1c2c(c3ccc(OCCN4CCN(c5ccc(N6C(=S)N(c7ccc(C#N)c(C(F)(F)F)c7)C(=O)C6(C)C)cc5)CC4)cc31)C(=O)N(C1CCC(=O)NC1=O)C2=O (stereo not drawn) [Compound 118]	80		
CCn1c2c(c3ccc(OCCCN4CCN(c5ccc(C(=O)N[C@H]6C(C)(C)[C@H](Oc7ccc(C#N)c(Cl)c7)C6(C)C)cc5)CC4)cc31)C(=O)N(C1CCC(=O)NC1=O)C2=O (stereo partly drawn) [Compound 21]	92		
Cn1c2c(c3ccc(OCCCN4CCC5(CC4)CCN(c4ccc(C(=O)N[C@H]6CC[C@H](Oc7ccc(C#N)c(Cl)c7)CC6)nn4)CC5)cc31)C(=O)N(C1CCC(=O)NC1=O)C2=O (stereo partly drawn) [Compound 194]			DC50 [4]: 10 to 25 nM
CCn1c2c(c3ccc(OCCN4CCCN(c5ccc(C(=O)N[C@H]6CC[C@H](Oc7ccc(C#N)c(Cl)c7)CC6)nn5)CC4)cc31)C(=O)N(C1CCC(=O)NC1=O)C2=O (stereo partly drawn) [Compound 52]	42	10 to 25	
CCn1c2c(c3ccc(OCC(=O)N4CC5(CCN(c6ccc(C(=O)N[C@H]7CC[C@H](Oc8ccc(C#N)c(Cl)c8)CC7)nn6)CC5)C4)cc31)C(=O)N(C1CCC(=O)N(CO)C1=O)C2=O (stereo partly drawn) [Compound 126]	58		
CCn1c2c(c3ccc(OC4CCN(CC5CCN(c6ccc(C(=O)N[C@H]7CC[C@H](Oc8ccc(C#N)c(Cl)c8)CC7)nn6)CC5)CC4)cc31)C(=O)N(C1CCC(=O)NC1=O)C2=O (stereo partly drawn) [Compound 203]		< 10	
